Assay results from ChEMBL document CHEMBL5360538, “Recent updates on 1,2,3-triazole-containing hybrids with in vivo therapeutic potential against cancers: A mini-review” (Eur J Med Chem, 2023).

How the values were obtained:
[1] = test system: PC-9; test: Antitumor activity against human PC-9 cells xenografted in NSG mouse model assessed as inhibition of tumor growth at 25 mg/kg, ip qd administered every day for 7 consecutive days relative to control; type: functional; details: PC-9, 168 h, time 7 day
[2] = test system: 4T1; test: Antitumor activity against mouse 4T1 cells overexpressing IDO1 implanted in BALB/c mouse model assessed as inhibition of tumor growth at 25 mg/kg, ip qd administered every day for 8 consecutive days and measured after 14 days relative to control; type: functional; details: 4T1, 336 h, time 14 day
[3] = Antiproliferative activity against human Tamoxifen-resistant MCF7 cells assessed as inhibition of cell growth by MTT assay; type: functional, cell-based
[4] = Antiproliferative activity against human Trastuzumab-resistant BT-474 cells assessed as inhibition of cell growth by MTT assay; type: functional, cell-based, Trastuzumab-resistant BT-474 cell
[5] = test system: MCF7; test: Antiproliferative activity against drug-sensitive human MCF7 cells assessed as inhibition of cell growth by MTT assay; type: functional, cell-based
[6] = test system: BT-474; test: Antiproliferative activity against drug-sensitive human BT-474 cells assessed as inhibition of cell growth by MTT assay; type: functional, cell-based
[7] = Plasma clearance in Albino mouse at 1.0 mg/kg, iv; type: ADME, organism-based
[8] = test system: SK-BR-3; test: Antiproliferative activity against drug-sensitive human SK-BR-3 cells assessed as inhibition of cell growth by MTT assay; type: functional, cell-based
[9] = test system: MCF7; test: Antitumor activity against human MCF7 cells xenografted in mouse assessed as tumor growth inhibition by measuring T/C ratio at 25 mg/kg, iv; type: functional
[10] = Elimination half life in Albino mouse plasma at 1.0 mg/kg, iv; type: ADME, organism-based; details: read-out: beta t1/2 (converted)
[11] = AUC(0 to t) in Albino mouse at 1.0 mg/kg, iv; type: ADME, organism-based; set-up: dose 1 mg/kg, route iv; details: in vivo
[12] = test system: MDA-MB-231; test: Antiproliferative activity against drug-sensitive human MDA-MB-231 cells assessed as inhibition of cell growth by MTT assay; type: functional, cell-based
[13] = test system: NCI-H1975; test: Antiproliferative activity against human NCI-H1975 cells assessed as inhibition of cell growth by MTT assay; type: functional, cell-based
[14] = test system: PC-9; test: Antiproliferative activity against human PC-9 cells assessed as inhibition of cell growth by MTT assay; type: functional, cell-based
[15] = test system: NCI-H460; test: Antiproliferative activity against human NCI-H460 cells assessed as inhibition of cell growth by MTT assay; type: functional, cell-based
[16] = test system: A549; test: Antiproliferative activity against human A549 cells assessed as inhibition of cell growth by MTT assay; type: functional, cell-based
[17] = test system: MGC-803; test: Antitumor activity against human MGC-803 cells xenografted in SCID mouse model assessed as inhibition of tumor growth at 50 mg/kg, po relative to control; type: functional
[18] = test system: A549; test: Antitumor activity against human A549 cells xenografted in Kunming mouse model assessed as inhibition of tumor growth at 20 mg/kg, iv administered twice daily for 2 weeks relative to control; type: functional; details: A549, 336 h
[19] = test system: SGC-7901; test: Antiproliferative activity against human SGC-7901 cells assessed as inhibition of cell growth incubated for 72 hrs by MTT assay; type: functional, cell-based; details: SGC-7901, 72 h
[20] = test system: KYSE-150 cell line; test: Antiproliferative activity against human KYSE-150 cells assessed as inhibition of cell growth incubated for 72 hrs by MTT assay; type: functional, cell-based; details: KYSE-150, 72 h, pooled result: one value given for 5 cell lines, strains, targets or settings
[21] = test system: NCI-H1650; test: Antiproliferative activity against drug-sensitive human NCI-H1650 cells assessed as inhibition of cell growth incubated for 48 hrs by MTT assay; type: functional, cell-based; details: NCI-H1650, 48 h, pooled result: one value given for 9 cell lines, strains, targets or settings
[22] = test system: KYSE-450; test: Antitumor activity against human KYSE-450 cells xenografted in nu/nu nude mouse model assessed as inhibition of tumor growth at 25 mg/kg, ip administered every day for 15 days relative to control; type: functional; details: KYSE-450, 360 h, time 15 day
[23] = test system: ECa-109 cell line; test: Potency index, ratio of 5-fluorouracil IC50 to test compound IC50 for antiproliferative activity against human EC109 cells assessed as inhibition of cell growth incubated for 72 hrs by MTT assay; type: functional
[24] = test system: KYSE-150 cell line; test: Potency index, ratio of 5-fluorouracil IC50 to test compound IC50 for antiproliferative activity against human KYSE-150 cells assessed as inhibition of cell growth incubated for 72 hrs by MTT assay; type: functional
[25] = test system: KYSE-270; test: Potency index, ratio of 5-fluorouracil IC50 to test compound IC50 for antiproliferative activity against human KYSE-270 cells assessed as inhibition of cell growth incubated for 72 hrs by MTT assay; type: functional
[26] = test system: KYSE-510; test: Potency index, ratio of 5-fluorouracil IC50 to test compound IC50 for antiproliferative activity against human KYSE-510 cells assessed as inhibition of cell growth incubated for 72 hrs by MTT assay; type: functional
[27] = test system: ECa-109 cell line; test: Antitumor activity against human EC109 cells xenografted in BALB/c nude mouse model assessed as inhibition of tumor growth at 60 mg/kg, po relative to control; type: functional
[28] = test system: TE-1; test: Potency index, ratio of 5-fluorouracil IC50 to test compound IC50 for antiproliferative activity against human TE-1 cells assessed as inhibition of cell growth incubated for 72 hrs by MTT assay; type: functional
[29] = test system: LA7; test: Antitumor activity against rat LA7 cells xenografted in mouse assessed as inhibition of tumor growth at 5 mg/kg, po administered daily for 21 days relative to control; type: functional; details: LA7, 504 h, time 21 day
[30] = test system: LA7; test: Antiproliferative activity against rat LA7 cells assessed as inhibition of cell growth incubated for 48 hrs by MTT assay; type: functional, cell-based; details: LA7, 48 h
[31] = test system: MCF7; test: Antiproliferative activity against human MCF7 cells assessed as inhibition of cell growth incubated for 48 hrs by MTT assay; type: functional, cell-based; details: MCF7, 48 h
[32] = test system: NCI-H211; test: Antiproliferative activity against human NCI-H211 cells assessed as reduction in cell viability by MTS assay; type: functional, cell-based
[33] = test system: MDA-MB-231; test: Antiproliferative activity against human MDA-MB-231 cells assessed as reduction in cell viability by MTS assay; type: functional, cell-based
[34] = test system: A549; test: Antiproliferative activity against human A549 cells assessed as inhibition of cell growth incubated for 48 hrs by MTT assay; type: functional, cell-based; details: A549, 48 h
[35] = test system: A549; test: Antitumor activity against human A549 cells xenografted in nude mouse model assessed as inhibition of tumor growth at 1.0 mg/kg, sc administered every three or four days for 4 weeks relative to control; type: functional; details: A549, 672 h
[36] = test system: NCI-H460; test: Antiproliferative activity against human NCI-H460 cells assessed as inhibition of cell growth incubated for 48 hrs by MTT assay; type: functional, cell-based; details: NCI-H460, 48 h
[37] = test system: B16-F10; test: Antitumor activity against mouse B16-F10 cells implanted in melanoma mouse model assessed as inhibition of tumor growth at 20 mg/kg, po relative to control; type: functional

## C#Cc1cccc(Nc2ncnc3cc(OCCOC)c(OCCOC)cc23)c1 [ERLOTINIB]
[1]
  inhibition in vivo at 25 mg/kg: 90%
[2]
  inhibition in vivo at 25 mg/kg: 36%

## CCN1CCN(Cc2ccc(Nc3ncc(F)c(-c4cc(F)c5nc(C)n(C(C)C)c5c4)n3)nc2)CC1 [ABEMACICLIB]
[3]
  IC50: 153 nM
[4]
  IC50: 153 nM
[5]
  IC50: 153 nM
[6]
  IC50: 153 nM
[7]
  clearance: 43 mL/min/kg
[8]
  IC50: 153 nM
[9]
  T/C: 0.51
[10]
  half-life: 60 min
[11]
  AUC(0-t): 487 ng·h/mL
[12]
  IC50: 153 nM

## COCCOc1cc2ncnc(Nc3cccc(-c4cn(Cc5cc(Br)cc(Br)c5)nn4)c3)c2cc1OCCOC
[13]
  IC50: 3.31 µM
[1]
  inhibition in vivo at 25 mg/kg: 90%
[14]
  IC50: 3.31 µM
[15]
  IC50: 3.31 µM
[16]
  IC50: 3.31 µM
[2]
  inhibition in vivo at 25 mg/kg: 64%

## COc1ccc(-n2cc(CN3c4ccccc4Sc4ccccc43)nn2)c([N+](=O)[O-])c1
[17]
  inhibition in vivo at 50 mg/kg: 70.1%

## O=c1[nH]cc(F)c(=O)[nH]1 [FLUOROURACIL]
[18]
  inhibition in vivo at 20 mg/kg: 64.7%
[19]
  IC50: 26.3 µM
[20]
  IC50: 7.73 µM

## C#Cc1cccc(Nc2ncnc3cc4c(cc23)OCCOCCOCCO4)c1 [ICOTINIB]
[21]
  IC50: > 19.2 µM
[22]
  inhibition in vivo at 25 mg/kg: 15%

## COc1cnc(Cn2cc(CNC(=O)c3c(F)c(F)c(F)c(F)c3F)nn2)c(OC)c1
[23]
  Ratio IC50: 3.1
[24]
  Ratio IC50: 3.1
[25]
  Ratio IC50: 3.1
[26]
  Ratio IC50: 3.1
[27]
  inhibition in vivo at 60 mg/kg: 60%
[20]
  IC50: 0.83 µM
[28]
  Ratio IC50: 3.1

## O=C1/C(=C/c2ccccc2F)CN(Cc2cn(Cc3ccc(F)cc3)nn2)C/C1=C\c1ccccc1F
[29]
  inhibition in vivo at 5 mg/kg: 80%
[30]
  IC50: 3.1 µM
[31]
  IC50: 2100 nM

## Cc1nnn(C)c1-c1cnc2c3cc4cnn(C)c4cc3n([C@H](c3ccccc3)C3CCOCC3)c2c1
[32]
  IC50: 1.99 nM
[33]
  IC50: 1.58 nM

## COc1ccc2c(c1)OCC(=O)N2Cc1cn(Cc2ccccc2)nn1
[34]
  IC50: < 8 µM
[35]
  inhibition in vivo at 1 mg/kg: 60%
[36]
  IC50: < 8 µM

## C/C(=C(/Cl)c1ccccc1)c1nnc(-c2cn(CCCOc3ccc(C(C)(C)C)cc3)nn2)o1
[37]
  inhibition in vivo at 20 mg/kg: 90%
